Our source for the IC50, inhibition and Ratio values is ChEMBL document CHEMBL5113389, “Topoisomerase I inhibitors: Challenges, progress and the road ahead” (Eur J Med Chem, 2022).

One assay concerns RPMI 8402. Kind of assay: Cytotoxicity against human RPMI 8402 cells assessed as cell growth inhibition measured after 4 days by MTT assay. The format is functional, cell-based. Conditions: RPMI 8402, 96 h.
Assay [1] deals with T1, DNA topoisomerase 1 (Homo sapiens) (UniProt P11387).
T1 sequence (whole entry): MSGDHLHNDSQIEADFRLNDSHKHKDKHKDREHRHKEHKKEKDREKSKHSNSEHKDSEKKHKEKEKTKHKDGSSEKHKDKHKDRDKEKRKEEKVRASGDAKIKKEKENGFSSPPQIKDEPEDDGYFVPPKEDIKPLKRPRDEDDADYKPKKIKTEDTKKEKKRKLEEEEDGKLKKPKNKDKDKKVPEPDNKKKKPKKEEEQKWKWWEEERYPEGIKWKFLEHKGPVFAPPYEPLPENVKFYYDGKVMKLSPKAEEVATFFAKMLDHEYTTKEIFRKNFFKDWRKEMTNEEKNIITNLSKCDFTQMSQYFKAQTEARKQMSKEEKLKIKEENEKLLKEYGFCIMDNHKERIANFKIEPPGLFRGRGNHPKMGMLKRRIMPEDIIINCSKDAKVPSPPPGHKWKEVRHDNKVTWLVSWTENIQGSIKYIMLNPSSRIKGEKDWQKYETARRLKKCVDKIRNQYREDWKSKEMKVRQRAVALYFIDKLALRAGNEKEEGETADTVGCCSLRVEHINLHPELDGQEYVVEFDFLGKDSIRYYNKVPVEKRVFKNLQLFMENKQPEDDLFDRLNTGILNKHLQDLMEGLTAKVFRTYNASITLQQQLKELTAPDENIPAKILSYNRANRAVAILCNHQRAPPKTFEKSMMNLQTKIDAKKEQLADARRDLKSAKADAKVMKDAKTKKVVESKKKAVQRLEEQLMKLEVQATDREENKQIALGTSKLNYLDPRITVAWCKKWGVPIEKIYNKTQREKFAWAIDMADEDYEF
As to the kind of experiment: Inhibition of full-length recombinant human Top1 expressed in baculovirus infected Sf9 insect cells at 5 uM incubated for 30 mins relative to control.

The target in assay [2] is T1, DNA topoisomerase 1 (Homo sapiens). Kind of assay: Inhibition of human Top1 expressed in Escherichia coli assessed as enzyme-mediated DNA cleavage by measuring relative effective concentration incubated for 30 mins relative to topotecan.
In the next assay the test system is K5. As to the kind of experiment: Cytotoxicity against human camptothecin-resistant K5 cells assessed as cell growth inhibition measured after 4 days by MTT assay. The format is functional, cell-based. To be noted: K5, 96 h.
The test system of assay [3] is HCT-116. As to the kind of experiment: Cytotoxicity against human HCT-116 cells assessed as cell growth inhibition measured after 4 days by MTT assay. The format is functional, cell-based. Conditions: HCT-116, 96 h.
The target in assay [4] is T1, DNA topoisomerase 1 (Homo sapiens). Kind of assay: Inhibition of Top1 in [3H]-Thymidine-labeled human MCF7 cells assessed as Top1-DNA complex formation at 30 uM incubated for 60 mins followed by addition of salmon sperm DNA and subsequent addition of KCl relative to control. In kind it is cell-based.
The subject of assay [5] is HCT-116. As to the kind of experiment: Cytotoxicity against human HCT-116 cells assessed as cell growth inhibition incubated for 72 hrs by MTT assay. In kind it is functional, cell-based. To be noted: HCT-116, 72 h.
A further assay has as its system K562. As to the kind of experiment: Cytotoxicity against human K562 cells assessed as cell growth inhibition incubated for 72 hrs by MTT assay. The format is functional, cell-based. To be noted: K562, 72 h.
Assay [6] concerns P388. As to the kind of experiment: Cytotoxicity against mouse P388 cells assessed as cell growth inhibition. The format is functional, cell-based.
Another assay relates to CCRF-CEM. As to the kind of experiment: Cytotoxicity against human CEM cells assessed as cell growth inhibition. In kind it is functional, cell-based.
The subject of assay [7] is HCT-116. Kind of assay: Cytotoxicity against human HCT-116 cells assessed as cell growth inhibition incubated for 3 days by SRB assay. The format is functional, cell-based. To be noted: HCT-116, 72 h.
The subject of the next assay is MCF7. As to the kind of experiment: Cytotoxicity against human MCF7 cells assessed as cell growth inhibition incubated for 3 days by SRB assay. The format is functional, cell-based. To be noted: MCF7, 72 h.
Assay [8] is described as follows: Cytotoxicity against human U-937/CR cells assessed as cell growth inhibition incubated for 3 to 4 days by MTT assay. The format is functional, cell-based.
The test system of a further assay is U-937. Kind of assay: Cytotoxicity against human U-937 cells assessed as cell growth inhibition incubated for 3 to 4 days by MTT assay. The format is functional, cell-based.
For assay [9], the system named is P388. Kind of assay: Cytotoxicity against mouse P388 cells assessed as cell growth inhibition incubated for 3 to 4 days by MTT assay. The format is functional, cell-based.
In a further assay the test system is P388CPT45. Kind of assay: Cytotoxicity against mouse P388CPT45 cells assessed as cell growth inhibition incubated for 3 to 4 days by MTT assay. In kind it is functional, cell-based.

Take `CN(C)CCn1c(=O)c2ccc([N+](=O)[O-])cc2c2cnc3cc4c(cc3c21)OCO4`: in the assay with RPMI 8402, the IC50 worked out at 3 nM.

As to `COc1cc2c(=O)n(CCN(C)C)c3c4cc([N+](=O)[O-])ccc4ncc3c2cc1OC`, in the assay on RPMI 8402, the IC50 is 18 nM.

On to `O=c1c2ccccc2nc2n1Cc1cc3ccccc3nc1-2`, for which, in assay [1], the inhibition turned out to be 18%.

Regarding `CN(C)CCn1c(=O)c2cc([N+](=O)[O-])ccc2c2cnc3cc4c(cc3c21)OCO4`, the concentration for half-maximal inhibition (IC50) in the assay with RPMI 8402 was determined as 2 nM. Also, the Ratio in [2] was found to be 0.1.

For the compound `COc1cc2ncc3c4cc5c(cc4ccc3c2cc1OC)OCO5`, the IC50 in the assay with RPMI 8402 came out at 4500 nM; in the assay on K5, 10800 nM.

Consider `COc1cc2c(=O)n(CCN(C)C)c3c4cc(N)ccc4ncc3c2cc1OC`, for which the IC50 in the assay with RPMI 8402 is 40 nM.

Turning to `O=c1c2ccccc2nc2n1Cc1cc3c(Br)cccc3nc1-2`, the inhibition in assay [1] is 54%.

Regarding `COc1ccc2c(ccc3c4cc5c(cc4nnc23)OCO5)c1`, the IC50 worked out at 70 nM with RPMI 8402 and 40 nM in the assay on HCT-116 [3].

For the compound `COc1cc2c(=O)n(CCN(C)C)c3c4ccc([N+](=O)[O-])cc4ncc3c2cc1OC`, the IC50 in the assay with RPMI 8402 is 75 nM.

With `CN1c2ccccc2C(=O)N2CCc3c([nH]c4ccccc34)C21` (stereo not given), the inhibition in assay [4] was 24.2%.

For the compound `COc1cc2c(=O)n(CCN(C)C)c3c4ccc(N)cc4ncc3c2cc1OC`, the IC50 in the assay on RPMI 8402 stood at 100 nM.

Regarding `O=c1c2ccccc2nc2n1Cc1c-2nc2ccccc2c1C(F)(F)F`, the IC50 with HCT-116 [5] stood at 17000 nM; in the assay with K562, 21000 nM.

Regarding `COc1cc(-c2c3c4cc(OC)c(O)cc4oc(=O)c3n3ccc4cc(O)c(OC)cc4c23)ccc1O` [LAMELLARIN D], the values for the IC50 with P388 [6] and in the assay on CCRF-CEM were 136 nM and 14 nM, respectively.

With `CC[C@@]1(O)C(=O)Cc2c1cc1n(c2=O)Cc2c-1nc1cc3c(cc1c2C1CCC1)OCO3`, the half-maximal inhibitory concentration (IC50) worked out at 6 nM with HCT-116 [7] and 3 nM in the assay on MCF7.

`O=c1c2ccccc2nc2n1Cc1cc3c(Cl)cccc3nc1-2`: in assay [1], the inhibition was found to be 48%.

Take `COc1cc2ccc3c4cc5c(cc4ncc3c2cc1OC)OCO5`: the IC50 in assay [8] is 50 nM; with U-937, 40 nM; in the assay with P388 [9] it was 190 nM; in the assay with P388CPT45, 180 nM.
